The AC50 is the midpoint of the concentration-response curve, whichever way the signal moves. The term IC50 denotes the concentration that inhibits the measured activity by half. What is called EC50 is the concentration that produces a half-maximal response.

In data set [1] the target is Cytochrome P450 2C9 (Homo sapiens, UniProt P11712).
The target in data set [2] is Cytochrome P450 2D6 (Homo sapiens, UniProt P10635).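 Note: CYP2D6 member of a cytochrome P450 panel assay.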
Data set [3] deals with Cytochrome P450 3A4 (Homo sapiens, UniProt P08684).
Data set [4] has as its target T1, Fatty acid synthase (Homo sapiens, UniProt P49327). Nature of the data set: FAS thioesterase domain inhibitors, dose response, biochemical, kinetic fluorescence intensity (AID 624326).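 Note: rate of fluorescence rise from hydrolysis of a fluorogenic O-methyl fluorescein ester substrate.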 It is filed as functional.
Data set [5] concerns the target T1, Fatty acid synthase. Nature of the data set: FAS thioesterase domain inhibitors, dose response, biochemical, endpoint fluorescence intensity, uHTS hits (AID 624327).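 Note: fluorescence from hydrolysis of an O-methyl fluorescein acyl ester substrate by the enzyme.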 It is filed as functional.
The target of data set [6] is T2, Carboxy-terminal domain RNA polymerase II polypeptide A small phosphatase 1 (Homo sapiens, UniProt Q9GZU7).
T2 sequence (Q9GZU7 whole entry): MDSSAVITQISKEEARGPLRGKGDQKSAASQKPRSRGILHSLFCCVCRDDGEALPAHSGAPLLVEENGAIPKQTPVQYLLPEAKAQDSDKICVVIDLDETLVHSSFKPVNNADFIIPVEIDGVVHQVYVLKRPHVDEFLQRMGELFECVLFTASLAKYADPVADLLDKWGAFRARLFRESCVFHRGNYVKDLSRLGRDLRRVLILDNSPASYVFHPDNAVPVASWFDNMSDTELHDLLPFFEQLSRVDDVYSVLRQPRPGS
Nature of the data set: inhibitors of CTDSP1, concentration-response testing, biochemical assay, absorbance-based, actives from ultra-high-throughput screening (AID 540297). It is filed as functional.

For data set [7], the target named is Large T antigen (Simian virus 40, UniProt P03070). It is filed as functional, Betapolyomavirus macacae.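 Note: Confirmatory-stage PubChem screen for compounds that inhibit SV40 T antigen.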
Data set [8] deals with T3, Cytochrome P450 1A2 (Homo sapiens, UniProt P05177).
T3 sequence (P05177 whole entry): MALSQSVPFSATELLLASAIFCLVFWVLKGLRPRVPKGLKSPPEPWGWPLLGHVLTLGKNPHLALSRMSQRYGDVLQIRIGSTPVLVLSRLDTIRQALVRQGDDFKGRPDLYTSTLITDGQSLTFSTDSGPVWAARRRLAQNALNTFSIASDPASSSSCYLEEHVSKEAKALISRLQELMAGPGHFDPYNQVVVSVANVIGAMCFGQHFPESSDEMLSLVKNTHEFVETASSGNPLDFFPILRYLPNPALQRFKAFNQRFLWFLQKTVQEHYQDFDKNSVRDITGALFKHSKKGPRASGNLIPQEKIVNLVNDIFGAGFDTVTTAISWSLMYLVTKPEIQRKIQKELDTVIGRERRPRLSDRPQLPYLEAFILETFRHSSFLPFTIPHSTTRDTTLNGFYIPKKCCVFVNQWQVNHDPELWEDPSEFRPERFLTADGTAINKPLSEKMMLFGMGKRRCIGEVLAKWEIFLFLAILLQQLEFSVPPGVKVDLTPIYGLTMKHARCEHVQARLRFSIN

In data set [9] the target is Cytochrome P450 2C19 (Homo sapiens, UniProt P33261). Nature of the data set: Cytochrome panel assay with activity outcomes. Panel member name: p450-cyp2c19 Compounds with AC50 equal or less than 10 uM are considered active. It is filed as functional. Particulars: read-out: AC50.
The target in data set [10] is Luciferin 4-monooxygenase (Photinus pyralis, UniProt P08659). Nature of the data set: firefly luciferase enzyme inhibitors, dose response, biochemical, luminescence (AID 1891).
A short description of data set [11]: Luminescence Cell-Based Dose Confirmation HTS to Identify Inhibitors of Platelet Dense Granule Release. [Related pubchem assays: 1663 (Primary HTS), 1678 (Summary of Project)]. It is filed as functional.
Data set [12] is described as follows: Luminescence Cell-Based Dose Response HTS to Identify Inhibitors of 5'UTR Stem-Loop Driven Prion Protein mRNA Translation in H4 Neuroglioblastoma Cells. [Related pubchem assays: 1827 (Project Summary), 1813 (Primary HTS)]. It is filed as functional.
The nature of data set [13]: inhibitors of firefly luciferase expression or activity, dose response, H4 neuroglioma cells, luminescence (AID 1990). It is filed as functional, cell-based.
A short description of data set [14]: inhibitors of SNCA 5'UTR-driven reporter translation, confirmation, H4 neuroglioma cells, luminescence (AID 1988). It is filed as functional, cell-based.
Data set [15] deals with Genome polyprotein (dengue virus type 2, UniProt P29990). Put plainly: Dengue-2 NS5 methyltransferase inhibitors, primary screen, biochemical, confirmation dose response (AID 588689). It is filed as functional.
Data set [16] deals with FAD-linked sulfhydryl oxidase ALR (Homo sapiens, UniProt P55789). Put plainly: inhibitors of human ALR sulfhydryl oxidase, dose response, biochemical, H2O2 detection, luminescence, cherry-pick (AID 493248).

Each structure is given as a SMILES string. Active and inactive are the calls of the source. Bounds are passed on as bounds.

Chain of Cytochrome P450 2C9 (P11712 whole entry): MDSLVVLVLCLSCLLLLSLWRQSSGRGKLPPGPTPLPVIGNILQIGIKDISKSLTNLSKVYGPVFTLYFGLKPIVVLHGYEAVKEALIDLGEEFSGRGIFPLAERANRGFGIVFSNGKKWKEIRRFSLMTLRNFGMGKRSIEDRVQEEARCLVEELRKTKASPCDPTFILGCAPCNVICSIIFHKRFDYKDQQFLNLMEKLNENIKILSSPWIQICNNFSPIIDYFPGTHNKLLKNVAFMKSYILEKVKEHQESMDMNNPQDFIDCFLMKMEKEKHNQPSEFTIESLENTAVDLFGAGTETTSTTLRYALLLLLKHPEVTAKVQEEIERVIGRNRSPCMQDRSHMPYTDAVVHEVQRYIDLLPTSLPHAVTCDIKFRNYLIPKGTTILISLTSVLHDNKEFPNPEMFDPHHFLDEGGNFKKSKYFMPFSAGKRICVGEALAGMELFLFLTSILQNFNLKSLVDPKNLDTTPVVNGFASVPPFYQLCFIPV
Chain of Luciferin 4-monooxygenase (P08659 whole entry): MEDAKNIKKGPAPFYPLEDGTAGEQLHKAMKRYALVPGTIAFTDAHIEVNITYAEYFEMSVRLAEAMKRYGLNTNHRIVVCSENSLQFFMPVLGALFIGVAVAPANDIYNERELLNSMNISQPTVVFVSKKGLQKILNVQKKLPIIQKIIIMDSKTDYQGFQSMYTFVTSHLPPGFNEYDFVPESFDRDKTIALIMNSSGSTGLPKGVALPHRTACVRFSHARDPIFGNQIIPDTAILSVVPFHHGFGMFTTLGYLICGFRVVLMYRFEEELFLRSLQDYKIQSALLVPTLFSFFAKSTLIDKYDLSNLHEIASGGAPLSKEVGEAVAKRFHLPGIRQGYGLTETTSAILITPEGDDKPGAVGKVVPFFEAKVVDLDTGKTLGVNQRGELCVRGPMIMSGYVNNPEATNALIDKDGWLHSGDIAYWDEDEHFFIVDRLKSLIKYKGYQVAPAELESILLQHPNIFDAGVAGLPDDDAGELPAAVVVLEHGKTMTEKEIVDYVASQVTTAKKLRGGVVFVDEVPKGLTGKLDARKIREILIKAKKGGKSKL
T1 sequence (P49327 whole entry, the tested form may be a part): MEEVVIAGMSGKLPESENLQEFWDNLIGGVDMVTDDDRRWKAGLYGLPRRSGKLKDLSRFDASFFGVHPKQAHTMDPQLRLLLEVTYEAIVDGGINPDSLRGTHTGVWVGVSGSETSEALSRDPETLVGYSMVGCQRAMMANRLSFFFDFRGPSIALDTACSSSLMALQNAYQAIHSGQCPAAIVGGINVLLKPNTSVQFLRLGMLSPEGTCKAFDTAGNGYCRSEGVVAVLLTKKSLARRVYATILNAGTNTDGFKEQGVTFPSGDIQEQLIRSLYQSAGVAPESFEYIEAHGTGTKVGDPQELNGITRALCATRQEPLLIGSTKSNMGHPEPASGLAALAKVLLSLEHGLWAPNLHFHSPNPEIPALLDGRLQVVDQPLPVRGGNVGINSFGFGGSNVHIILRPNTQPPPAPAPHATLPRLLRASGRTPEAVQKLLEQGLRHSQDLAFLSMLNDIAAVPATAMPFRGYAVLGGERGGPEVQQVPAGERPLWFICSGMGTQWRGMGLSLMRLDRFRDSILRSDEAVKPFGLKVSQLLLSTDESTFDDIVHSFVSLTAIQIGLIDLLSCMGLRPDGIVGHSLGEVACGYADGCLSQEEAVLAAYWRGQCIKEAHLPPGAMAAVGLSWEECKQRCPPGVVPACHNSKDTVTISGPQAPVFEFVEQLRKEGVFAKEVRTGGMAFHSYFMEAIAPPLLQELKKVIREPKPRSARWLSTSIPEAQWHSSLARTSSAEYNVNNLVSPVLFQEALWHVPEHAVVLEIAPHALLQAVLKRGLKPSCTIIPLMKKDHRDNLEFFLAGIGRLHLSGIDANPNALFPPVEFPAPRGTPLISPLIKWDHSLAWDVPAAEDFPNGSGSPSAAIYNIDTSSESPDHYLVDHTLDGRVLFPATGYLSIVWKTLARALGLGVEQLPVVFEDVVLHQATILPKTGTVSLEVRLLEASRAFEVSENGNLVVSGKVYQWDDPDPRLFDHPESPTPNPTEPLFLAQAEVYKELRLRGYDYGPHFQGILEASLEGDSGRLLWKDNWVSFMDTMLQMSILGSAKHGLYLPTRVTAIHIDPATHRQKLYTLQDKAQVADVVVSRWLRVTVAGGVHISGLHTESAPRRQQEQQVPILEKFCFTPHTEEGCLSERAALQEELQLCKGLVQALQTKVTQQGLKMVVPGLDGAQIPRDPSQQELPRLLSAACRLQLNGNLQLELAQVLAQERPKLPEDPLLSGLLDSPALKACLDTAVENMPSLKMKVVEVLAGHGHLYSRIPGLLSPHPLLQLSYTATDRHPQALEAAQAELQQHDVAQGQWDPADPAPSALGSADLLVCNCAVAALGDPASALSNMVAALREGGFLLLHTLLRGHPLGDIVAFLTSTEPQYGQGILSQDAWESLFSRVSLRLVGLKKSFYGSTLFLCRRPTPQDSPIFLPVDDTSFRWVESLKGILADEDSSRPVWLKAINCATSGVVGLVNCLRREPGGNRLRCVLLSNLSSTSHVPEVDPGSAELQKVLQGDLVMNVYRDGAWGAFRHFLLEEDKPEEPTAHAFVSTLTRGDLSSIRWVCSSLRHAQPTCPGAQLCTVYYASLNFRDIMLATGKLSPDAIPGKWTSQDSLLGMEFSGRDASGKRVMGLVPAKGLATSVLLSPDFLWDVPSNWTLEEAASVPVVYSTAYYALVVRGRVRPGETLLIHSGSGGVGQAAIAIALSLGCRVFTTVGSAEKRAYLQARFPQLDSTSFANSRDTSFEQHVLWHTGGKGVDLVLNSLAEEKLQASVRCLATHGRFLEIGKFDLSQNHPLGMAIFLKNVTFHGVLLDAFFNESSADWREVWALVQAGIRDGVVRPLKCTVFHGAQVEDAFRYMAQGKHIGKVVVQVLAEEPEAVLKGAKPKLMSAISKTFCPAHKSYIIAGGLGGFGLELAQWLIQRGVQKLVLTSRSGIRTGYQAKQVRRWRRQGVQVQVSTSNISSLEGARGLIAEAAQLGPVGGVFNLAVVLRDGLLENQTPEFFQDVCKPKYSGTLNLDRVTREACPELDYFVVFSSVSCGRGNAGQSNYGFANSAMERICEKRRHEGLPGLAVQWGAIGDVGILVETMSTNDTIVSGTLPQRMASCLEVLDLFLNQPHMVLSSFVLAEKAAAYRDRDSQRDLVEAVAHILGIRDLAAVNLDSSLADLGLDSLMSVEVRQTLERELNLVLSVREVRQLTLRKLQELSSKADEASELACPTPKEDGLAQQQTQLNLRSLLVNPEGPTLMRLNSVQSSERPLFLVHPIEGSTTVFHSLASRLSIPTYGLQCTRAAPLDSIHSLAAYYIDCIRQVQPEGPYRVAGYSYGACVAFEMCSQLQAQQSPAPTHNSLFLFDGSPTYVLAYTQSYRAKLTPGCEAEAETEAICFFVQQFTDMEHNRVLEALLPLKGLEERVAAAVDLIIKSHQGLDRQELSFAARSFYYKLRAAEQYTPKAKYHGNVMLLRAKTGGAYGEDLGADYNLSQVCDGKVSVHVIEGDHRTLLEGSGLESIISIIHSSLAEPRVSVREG
Chain of Cytochrome P450 3A4 (P08684 whole entry, the tested form may be a part): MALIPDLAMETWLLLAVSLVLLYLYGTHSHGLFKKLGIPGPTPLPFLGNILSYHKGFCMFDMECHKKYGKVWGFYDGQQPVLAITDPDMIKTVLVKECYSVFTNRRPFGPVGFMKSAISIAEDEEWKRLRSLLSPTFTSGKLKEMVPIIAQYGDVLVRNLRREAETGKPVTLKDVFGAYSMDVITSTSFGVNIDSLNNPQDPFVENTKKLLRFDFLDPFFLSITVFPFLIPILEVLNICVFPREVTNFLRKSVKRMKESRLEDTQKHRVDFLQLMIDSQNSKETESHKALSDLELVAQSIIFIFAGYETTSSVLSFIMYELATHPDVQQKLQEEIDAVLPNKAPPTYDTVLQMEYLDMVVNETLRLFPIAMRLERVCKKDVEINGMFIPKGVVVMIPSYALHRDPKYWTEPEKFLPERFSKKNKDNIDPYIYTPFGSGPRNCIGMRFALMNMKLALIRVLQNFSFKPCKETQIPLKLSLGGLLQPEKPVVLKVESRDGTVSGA
Chain of Large T antigen (P03070 whole entry): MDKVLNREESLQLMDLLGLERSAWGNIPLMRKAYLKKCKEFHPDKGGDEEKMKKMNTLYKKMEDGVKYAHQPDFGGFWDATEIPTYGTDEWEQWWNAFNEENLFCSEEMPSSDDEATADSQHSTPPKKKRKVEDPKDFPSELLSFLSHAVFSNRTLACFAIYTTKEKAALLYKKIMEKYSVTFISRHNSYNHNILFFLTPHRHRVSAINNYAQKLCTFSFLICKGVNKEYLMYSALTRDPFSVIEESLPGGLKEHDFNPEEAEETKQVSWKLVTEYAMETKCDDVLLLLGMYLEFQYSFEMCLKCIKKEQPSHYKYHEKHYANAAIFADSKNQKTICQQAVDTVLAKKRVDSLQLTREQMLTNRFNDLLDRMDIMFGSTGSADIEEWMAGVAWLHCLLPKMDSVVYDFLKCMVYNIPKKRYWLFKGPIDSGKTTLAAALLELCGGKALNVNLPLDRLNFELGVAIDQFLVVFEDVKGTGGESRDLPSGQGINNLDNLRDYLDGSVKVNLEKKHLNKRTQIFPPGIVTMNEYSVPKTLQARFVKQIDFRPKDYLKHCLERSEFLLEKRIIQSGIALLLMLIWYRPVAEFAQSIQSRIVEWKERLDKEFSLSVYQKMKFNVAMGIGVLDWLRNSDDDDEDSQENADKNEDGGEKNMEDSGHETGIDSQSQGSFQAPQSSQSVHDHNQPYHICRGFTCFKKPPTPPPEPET
Chain of FAD-linked sulfhydryl oxidase ALR (P55789 whole entry): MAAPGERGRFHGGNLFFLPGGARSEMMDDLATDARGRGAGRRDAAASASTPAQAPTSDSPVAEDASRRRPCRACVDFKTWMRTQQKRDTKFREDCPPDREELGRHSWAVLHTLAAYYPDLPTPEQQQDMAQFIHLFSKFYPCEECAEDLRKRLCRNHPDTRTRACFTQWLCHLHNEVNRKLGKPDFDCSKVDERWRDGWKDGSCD

With `COc1ccc(S(=O)(=O)NCCC(=O)NCc2ccc(F)cc2)cc1`, the results for the half-maximal activity concentration (AC50) entry in [1], in [2] and in data set [3] were “inconclusive”, 50.1 µM (inconclusive) and 28.2 µM (inconclusive), respectively.

Turning to `CCOc1ccc(-c2ccc(NS(=O)(=O)c3cc([N+](=O)[O-])c(C)c([N+](=O)[O-])c3)cc2)nn1`, the figures for the half-maximal inhibitory concentration (IC50) in data set [4] and in [5] were 0.706 µM (active) and 0.872 µM (active), respectively.

As to `CC(=O)Nc1cc(S(=O)(=O)Nc2ccccc2)c(C)cc1C`, the concentration at half-maximal activity (AC50) result was “inconclusive” in [1] and 28.2 µM (inconclusive) in data set [3].

In the case of `Oc1c(Br)c(Br)c(Br)c(Br)c1Br` [PENTABROMOPHENOL], the IC50 in data set [4] is 6.52 µM (active); in [5], 6.27 µM (active).

Consider `CCOc1ccccc1/C=C(\C#N)C(N)=O`, for which the concentration at half-maximal activity (AC50) entry in data set [1] was “inconclusive”.

For the molecule `N=C1/C(=C\c2ccc(Br)o2)C(=O)N=C2SC(CC(=O)N3CCCCC3)=NN12`, the IC50 in data set [6] was 26.7 µM (active); in data set [7], > 100 µM (active).

Turning to `COc1ccc(S(=O)(=O)N2CCN(CC(=O)Nc3cccc(F)c3)CC2)cc1`, the AC50 entry is “inconclusive” in data set [1], 25.1 µM (inconclusive) in data set [2] and 0.0794 µM (inconclusive) in [8].

Take `COc1ccc2c(c1)c(=O)oc1c(C)c(OC(C)C(=O)N[C@@H](Cc3c[nH]c4ccc(O)cc34)C(=O)O)ccc12` (stereo partly specified): the half-inhibitory concentration (IC50) in [6] is 6.88 µM (active).

In the case of `O=C(COC(=O)c1ccc(S(=O)(=O)NCc2ccco2)cc1)Nc1ccc(Cl)cn1`, in data set [6], the half-inhibitory concentration (IC50) was 4.79 µM (active).

In the case of `O=C(CNC(=O)c1ccc([N+](=O)[O-])cc1)c1ccccc1`, the figures for the half-maximal activity concentration (AC50) in data set [9] and in data set [1] were 2.82 µM (inconclusive) and “inconclusive”, respectively.

With `O=C(Cn1ncc(Cl)c(Cl)c1=O)NC1CCS(=O)(=O)C1` (stereo unspecified), the 50% inhibitory concentration (IC50) in [6] is 8.49 µM (active).

With `CN(CC(=O)Nc1ccccc1Br)C(=O)C(Cc1ccccc1)NC(=O)c1ccccc1` (stereo unspecified), the EC50 in data set [10] and in data set [11] was > 112 µM (not active) in each case.

Turning to `CC(C)C(=O)c1c(C(C)C)nn2ccccc12` [IBUDILAST], the values for the AC50 in data set [9] and in data set [1] were 3.16 µM (inconclusive) and “inconclusive”, respectively.

As for `Cn1cnc([N+](=O)[O-])c1Nc1ccccc1O`, the half-maximal effective concentration (EC50) in data set [10] and in [11] was > 112 µM (not active) each time.

Turning to `Cc1ccc(C(=O)N/N=C/c2cc(C)n(-c3ccc(Br)cc3)c2C)cc1[N+](=O)[O-]`, in data set [1], the half-maximal activity concentration (AC50) result was “inconclusive”. In addition, the concentration giving a half-maximal response (EC50) in [12] was 17.4 µM (active); in data set [13], 11.2 µM (active); in [14], 16.7 µM (active).

As to `C[n+]1ccccc1C1CCCC/C1=N\NC(N)=S` (stereo unspecified), in data set [6], the IC50 is 5.71 µM (active).

In the case of `COc1ccc(CCNC(=O)C[S+]([O-])Cc2nc(-c3ccc(C)cc3)oc2C)cc1OC` (stereo unspecified), the EC50 in [10] and in data set [11] was > 112 µM (not active) throughout.

With `COCCNC(=O)CSc1nc(-c2ccc(OC)c(OC)c2)cc(C(F)(F)F)n1`, the EC50 in data set [10] and in [11] was > 112 µM (not active) each time.

In the case of `COc1cc(/C=C(/C#N)C(=O)Nc2ccccc2)ccc1OCc1ccc(C(=O)O)cc1`, the 50% inhibitory concentration (IC50) in data set [6] was 3.34 µM (active).

Take `CCCC(=O)Nc1cc(C(F)(F)F)ccc1N1CCOCC1`: the EC50 in [10] and in [11] was > 112 µM (not active) each time.

Regarding `O=C(CSc1ccc(-c2ccco2)nn1)c1ccccc1`, the EC50 in [10] and in [11] was > 112 µM (not active) each time.

`CCC(=O)N(C)CCc1cc2c(c(OC)c1/C=N/NC(=O)c1ccccc1O)OCO2`: the EC50 in [10] and in data set [11] was > 112 µM (not active) in each case.

In the case of `O=C1NN(c2ccccc2)C(=O)/C1=C/c1ccc(-c2cccc(C(=O)O)c2)o1`, the results for the IC50 in data set [15], in [6] and in data set [7] were 30.6 µM (active), 11 µM (active) and 24.3 µM (active), respectively. In data set [16], the AC50 is 0.228 µM (active).

The values are drawn from ChEMBL document CHEMBL1201862, “PubChem BioAssay data set” (2004).
